Among the data in PubChem BioAssay AID248 (DTP/NCI, 2004) are T/C values, retold here.

The experiment has as its system L1210 leukemia ip in BDF1 mice, survival T/C. In words: NCI In Vivo Anticancer Drug Screen. Data for tumor model L1210 Leukemia (intraperitoneal) in B6D2F1 (BDF1) mice. As to conditions: endpoint: mean survival time, higher = longer survival. In a few lines:
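Each compound was tested against a transplantable tumor grown in mice. The endpoint was survival, with treated animals benchmarked against vehicle controls as a simple ratio.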

The mark [1] stands for this setting: dose: 100.0 mg/kg/injection, schedule: Q01DX001 (ip), vehicle: saline.
Where [2] appears, read: dose: 200.0 mg/kg/injection, schedule: Q01DX001 (ip), vehicle: saline.
Where [3] appears, read: dose: 25.0 mg/kg/injection, schedule: Q01DX009 (ip), vehicle: Klucel (hydroxypropylcellulose) (HPC).
Where [4] appears, read: dose: 50.0 mg/kg/injection, schedule: Q01DX009 (ip), vehicle: Klucel (hydroxypropylcellulose) (HPC).
[5] abbreviates: dose: 20.0 mg/kg/injection, schedule: Q01DX001 (ip), vehicle: saline.

Values joined by “and” are separate entries in the source; they are usually repeats but may differ in a detail not shown here. Equal entries are not always repeated. Inconclusive results and toxic doses are left out.

Regarding `Cn1c(=O)c2n[se]nc2n(C)c1=O`, the T/C (dose: 3.12 mg/kg/injection, schedule: Q01DX009 (ip), vehicle: Klucel (hydroxypropylcellulose) (HPC)) was 91 % of control; the T/C (dose: 3.12 mg/kg/injection, schedule: Q04DX002 (ip), vehicle: Klucel (hydroxypropylcellulose) (HPC)) is 102 % of control; the T/C (dose: 6.25 mg/kg/injection, schedule: Q01DX009 (ip), vehicle: Klucel (hydroxypropylcellulose) (HPC)) is 94 % of control; the T/C (dose: 6.25 mg/kg/injection, schedule: Q04DX002 (ip), vehicle: Klucel (hydroxypropylcellulose) (HPC)) is 105 % of control; the T/C (dose: 12.5 mg/kg/injection, schedule: Q04DX002 (ip), vehicle: Klucel (hydroxypropylcellulose) (HPC)) is 108 % of control and 111 % of control; the T/C (dose: 25.0 mg/kg/injection, schedule: Q04DX002 (ip), vehicle: Klucel (hydroxypropylcellulose) (HPC)) is 108 % of control.

Turning to `CCCCCCCCN/N=C(/C)CCCCCO`, the T/C was 98 % of control under setting [1]; 103 % of control under setting [2]; 103 % of control (dose: 400.0 mg/kg/injection, schedule: Q01DX001 (ip), vehicle: saline).

In the case of `CCOC(=O)C(=Cc1ccc(Cl)cc1)C(=O)OCC`, the T/C was 95 % of control under setting [3]; 97 % of control under setting [4]; 102 % of control (dose: 100.0 mg/kg/injection, schedule: Q01DX009 (ip), vehicle: Klucel (hydroxypropylcellulose) (HPC)); 107 % of control (dose: 100.0 mg/kg/injection, schedule: Q04DX003 (ip), vehicle: Klucel (hydroxypropylcellulose) (HPC)); 98 % of control (dose: 200.0 mg/kg/injection, schedule: Q04DX003 (ip), vehicle: Klucel (hydroxypropylcellulose) (HPC)); 100 % of control (dose: 400.0 mg/kg/injection, schedule: Q04DX003 (ip), vehicle: Klucel (hydroxypropylcellulose) (HPC)).

`CC1(C)OC2COC(c3[nH]nc4c(=O)[nH][nH]c(=O)c34)C2O1` (stereo not given): the T/C by setting is: (dose: 100.0 mg/kg/injection, schedule: Q01DX005 (ip), vehicle: saline) 103 % of control; (dose: 200.0 mg/kg/injection, schedule: Q01DX005 (ip), vehicle: saline) 106 % of control.

For the molecule `O=C1NC(=S)S/C1=C/C=C/c1ccccc1`, the T/C (dose: 100.0 mg/kg/injection, schedule: Q04DX002 (ip), vehicle: saline with Tween-80) was 95 % of control; the T/C (dose: 200.0 mg/kg/injection, schedule: Q04DX002 (ip), vehicle: saline with Tween-80) was 87 % of control; the T/C (dose: 400.0 mg/kg/injection, schedule: Q04DX002 (ip), vehicle: saline with Tween-80) was 98 % of control.

Take `O=C1C2(Cl)C3(Cl)C4(Cl)C(Cl)(Cl)C5(Cl)[C@]3(Cl)C1(Cl)[C@]5(Cl)C24Cl` (stereo not given in full): the T/C reads like this: (dose: 75.0 mg/kg/injection, schedule: Q01DX001 (ip), vehicle: carboxymethylcellulose (CMC)) 102 % of control; (dose: 150.0 mg/kg/injection, schedule: Q01DX001 (ip), vehicle: carboxymethylcellulose (CMC)) 96 % of control.

Regarding `CC(C)CN(C)N=Nc1ccc(C(N)=O)cc1`, the T/C (dose: 100.0 mg/kg/injection, schedule: Q01DX001 (ip), vehicle: other) is 100 % of control and the T/C (dose: 200.0 mg/kg/injection, schedule: Q01DX001 (ip), vehicle: other) is 91 % of control.

On to `COC(=O)C1=CN=NC1=[N+]=[N-]`, for which the T/C is, setting by setting: (dose: 10.0 mg/kg/injection, schedule: Q01DX001 (ip), vehicle: saline) 103 % of control; under setting [5], 97 % of control.

As for `COc1cc2c(cc1OC)C1(C(=O)c3ccc(OC)c(OC)c3C1=O)N(C(C)=O)C=C2` (stereo not given), the T/C was 95 % of control (dose: 12.5 mg/kg/injection, schedule: Q01DX009 (ip), vehicle: Klucel (hydroxypropylcellulose) (HPC)); 103 % of control under setting [3]; 100 % of control under setting [4].

As to `O=C(c1ccccc1Br)C(Br)C(Br)c1ccccc1` (stereo not given), the T/C runs as follows: (dose: 100.0 mg/kg/injection, schedule: Q01DX009 (ip), vehicle: saline with Tween-80) 98 % of control; (dose: 200.0 mg/kg/injection, schedule: Q01DX009 (ip), vehicle: saline with Tween-80) 93 % of control; (dose: 400.0 mg/kg/injection, schedule: Q01DX009 (ip), vehicle: saline with Tween-80) 91 % of control.

`CCCCN(CCCC)CC(O)c1ccc2cc(Cl)cc(Cl)c2n1` (stereo not given): the T/C (dose: 6.25 mg/kg/injection, schedule: Q01DX009 (ip), vehicle: saline with Tween-80) is 94 % of control; the T/C (dose: 6.25 mg/kg/injection, schedule: Q04DX003 (ip), vehicle: saline with Tween-80) was 98 % of control; the T/C (dose: 12.5 mg/kg/injection, schedule: Q01DX009 (ip), vehicle: saline with Tween-80) is 98 % of control; the T/C (dose: 12.5 mg/kg/injection, schedule: Q04DX003 (ip), vehicle: saline with Tween-80) was 95 % of control; the T/C (dose: 25.0 mg/kg/injection, schedule: Q01DX009 (ip), vehicle: saline with Tween-80) is 98 % of control; the T/C (dose: 25.0 mg/kg/injection, schedule: Q04DX003 (ip), vehicle: saline with Tween-80) was 95 % of control.

For `N#C/C(=C/Cc1ccc(Cl)cc1)Nc1ccccc1C(N)=O`, the T/C reads like this: (dose: 12.5 mg/kg/injection, schedule: Q01DX001 (ip), vehicle: Klucel (hydroxypropylcellulose) (HPC)) 101 % of control; (dose: 25.0 mg/kg/injection, schedule: Q01DX001 (ip), vehicle: Klucel (hydroxypropylcellulose) (HPC)) 101 % of control; (dose: 50.0 mg/kg/injection, schedule: Q01DX001 (ip), vehicle: Klucel (hydroxypropylcellulose) (HPC)) 102 % of control; (dose: 75.0 mg/kg/injection, schedule: Q04DX003 (ip), vehicle: Klucel (hydroxypropylcellulose) (HPC)) 104 % of control; (dose: 115.0 mg/kg/injection, schedule: Q04DX003 (ip), vehicle: Klucel (hydroxypropylcellulose) (HPC)) 104 % of control; (dose: 170.0 mg/kg/injection, schedule: Q04DX003 (ip), vehicle: Klucel (hydroxypropylcellulose) (HPC)) 98 % of control.

For the molecule `CC(=O)Nc1cc(C)cc(C)c1`, the T/C is 105 % of control (dose: 50.0 mg/kg/injection, schedule: Q01DX001 (ip), vehicle: carboxymethylcellulose (CMC)); 111 % of control (dose: 100.0 mg/kg/injection, schedule: Q01DX001 (ip), vehicle: carboxymethylcellulose (CMC)); 111 % of control (dose: 200.0 mg/kg/injection, schedule: Q01DX001 (ip), vehicle: carboxymethylcellulose (CMC)); 105 % of control (dose: 400.0 mg/kg/injection, schedule: Q01DX001 (ip), vehicle: carboxymethylcellulose (CMC)).

Consider `C1=C(c2ccccc2)N(C2CCCCC2)C(c2ccccc2)=CN1Cc1ccccc1`, for which the T/C runs as follows: (dose: 100.0 mg/kg/injection, schedule: Q04DX002 (ip), vehicle: Klucel (hydroxypropylcellulose) (HPC)) 92 % of control; (dose: 200.0 mg/kg/injection, schedule: Q04DX002 (ip), vehicle: Klucel (hydroxypropylcellulose) (HPC)) 92 % of control.

As to `NC1CCCCC1I` (stereo not given), the T/C reads like this: (dose: 75.0 mg/kg/injection, schedule: Q01DX001 (ip), vehicle: acetone) 94 % of control; (dose: 150.0 mg/kg/injection, schedule: Q01DX001 (ip), vehicle: acetone) 104 % of control.

On to `O=NN(CCCl)C(=O)NC1CCC(O)CC1` (stereo not given), for which the T/C reads like this: (dose: 6.25 mg/kg/injection, schedule: Q01DX001 (ip), vehicle: saline with Tween-80) 121 % of control; (dose: 12.5 mg/kg/injection, schedule: Q01DX001 (ip), vehicle: saline with Tween-80) 189 % of control; (dose: 12.5 mg/kg/injection, schedule: Q01DX001 (ip), vehicle: saline) 172 % of control and 239 % of control; (dose: 13.0 mg/kg/injection, schedule: Q01DX001 (ip), vehicle: saline) 384 % of control; under setting [5], 494 % of control; (dose: 25.0 mg/kg/injection, schedule: Q01DX001 (ip), vehicle: saline with Tween-80) 211 % of control. For the same molecule, the T/C (dose: 25.0 mg/kg/injection, schedule: Q01DX001 (ip), vehicle: saline) is 198 % of control and 210 % of control and 253 % of control; the T/C (dose: 26.0 mg/kg/injection, schedule: Q01DX001 (ip), vehicle: saline) was 401 % of control; the T/C (dose: 30.0 mg/kg/injection, schedule: Q01DX001 (ip), vehicle: saline) was 494 % of control; the T/C (dose: 40.0 mg/kg/injection, schedule: Q01DX001 (ip), vehicle: saline) is 435 % of control; the T/C (dose: 44.0 mg/kg/injection, schedule: Q01DX001 (ip), vehicle: saline) is 293 % of control; the T/C (dose: 50.0 mg/kg/injection, schedule: Q01DX001 (ip), vehicle: saline with Tween-80) was 264 % of control. Besides, the T/C (dose: 50.0 mg/kg/injection, schedule: Q01DX001 (ip), vehicle: saline) was 252 % of control and 113 % of control and 176 % of control; the T/C (dose: 60.0 mg/kg/injection, schedule: Q01DX001 (ip), vehicle: saline) was 240 % of control; the T/C (dose: 100.0 mg/kg/injection, schedule: Q01DX001 (ip), vehicle: saline with Tween-80) was 92 % of control; the T/C under setting [1] was 105 % of control and 99 % of control and 110 % of control; the T/C (dose: 200.0 mg/kg/injection, schedule: Q01DX001 (ip), vehicle: saline with Tween-80) was 87 % of control; the T/C under setting [2] is 103 % of control and 95 % of control and 106 % of control.
